Source: PubChem BioAssay AID1996
Converted amounts (≈) assume the structure as drawn. Residues, ends and D or L forms follow the SMILES beside them.

Details: buffer; pH 7.4; 200.0 µM
Work on `O=C1CC(c2ccc(F)cc2)CC2=C1C=Nc1ccccc1N2` (stereo not given) yielded a solubility kinetic of 0.7 µg/mL (≈ 2.29 µM). With `Cc1ccccc1-n1c(C)nc2ccsc2c1=O.Cl` the solubility kinetic was greater than 43.9 µg/mL. Compound `N#Cc1ccc(C(=O)Nc2cccc3ccccc23)c(F)c1` has a solubility kinetic of 0.9 µg/mL (≈ 3.1 µM). For `CC1=C(C#N)S(=O)(=O)C(C#N)C(c2ccccc2)C1` (stereo not given), the solubility kinetic was 30.1 µg/mL (≈ 111 µM). With `O=C(Nc1ccccc1C(=O)O)C1=NN=CC1` the solubility kinetic was greater than 34.7 µg/mL. `CCOC(=O)CCCNC(=O)CSc1nc2ccc(OCC)cc2[nH]1` gave a solubility kinetic of 51.4 µg/mL (≈ 141 µM). `COc1ccc(NC(=O)C2CCC2)cc1S(=O)(=O)Nc1cc(C)ccc1Br` gave a solubility kinetic of 1.1 µg/mL (≈ 2.43 µM). For `CC(=O)Nc1ccc(OCc2ccc3c(c2)OCO3)cc1`, the solubility kinetic was 15.4 µg/mL (≈ 54 µM). `COc1ccc(S(=O)(=O)NCc2cccnc2)cc1` showed a solubility kinetic greater than 41.7 µg/mL. Compound `COc1cc(CC(=O)NCC2CCCCC2)cc(OC)c1OC` has a solubility kinetic of 43.9 µg/mL (≈ 137 µM). Compound `CC(C)N(Cc1ccccc1)C(=O)CCc1ccccc1` has a solubility kinetic of 36.8 µg/mL (≈ 131 µM). For `N#Cc1c(SCC(N)=O)nc2c(c1-c1ccncc1)CCCC2`, the solubility kinetic was greater than 48.7 µg/mL. For `C/C(=N/OC(=O)c1ccccc1Br)c1ccc(C)cc1`, the solubility kinetic was 1.5 µg/mL (≈ 4.52 µM). `C=CCC(=O)NC(C)c1cnn(-c2ccccc2C)c1C` (stereo not given) showed a solubility kinetic greater than 42.5 µg/mL. Work on `O=C1CC2(CCCC2)C(=O)N1CN1CCN(S(=O)(=O)c2ccc(F)cc2F)CC1` yielded a solubility kinetic greater than 64.1 µg/mL. In the case of `Cn1c(=O)cc(N)n(-c2ccccc2)c1=O`, the solubility kinetic is reported as greater than 32.6 µg/mL. `CC(C)[C@H](NC(=O)c1ccccc1)C(=O)OCC(=O)NCc1ccc2c(c1)OCO2` gave a solubility kinetic greater than 61.9 µg/mL. In the case of `N/C(=N\OC(=O)C(c1ccccc1)c1ccccc1)c1ccncc1`, the solubility kinetic is reported as 47.5 µg/mL (≈ 143 µM). `CCOC(=O)/C=C1\SCC(=O)N1CC(=O)N1CCOCC1` gave a solubility kinetic greater than 47.2 µg/mL. `CCOc1ncccc1C(=O)Nc1cccc(S(=O)(=O)N2CCOCC2)c1` gave a solubility kinetic of 12 µg/mL (≈ 30.7 µM). For `Nc1ccncc1Cl`, the solubility kinetic was 16.3 µg/mL (≈ 127 µM). For `CC(=O)NC(Cc1ccccc1)C(=O)NC(Cc1ccccc1)C(=O)O` (stereo not drawn) (Ac-Phe-Phe-OH; configuration not given here), the solubility kinetic was 52.4 µg/mL (≈ 148 µM). `Cc1ccc(Oc2c(C)nc(-c3ccccc3)[nH]c2=O)cc1` gave a solubility kinetic of 1 µg/mL (≈ 3.42 µM). For `CC(C)NC(=O)N(Cc1ccccc1)Cc1cccs1`, the solubility kinetic was 41.8 µg/mL (≈ 145 µM). For `CC(=O)NC(=S)Nc1ccc([N+](=O)[O-])cc1C`, the solubility kinetic was 3.5 µg/mL (≈ 13.8 µM). With `OCCC1CN(CC2CC2)CCN1Cc1ccc(F)c(F)c1` (stereo not given) the solubility kinetic was greater than 46.6 µg/mL. With `O=C(C1CCC1)N1CCN(c2cccc(C(F)(F)F)c2)CC1` the solubility kinetic was 38.8 µg/mL (≈ 124 µM). Compound `O=C(O)CCCCCNC(=O)OCC1c2ccccc2-c2ccccc21` has a solubility kinetic of 3.4 µg/mL (≈ 9.62 µM). Compound `O=C(COC(=O)c1cccc(OC(F)F)c1)Nc1ncccn1` has a solubility kinetic of 30.2 µg/mL (≈ 93.4 µM). `CCOc1ccc(NC(=S)N2CCCC2)cc1` showed a solubility kinetic greater than 37.6 µg/mL. `O=C(NC(=S)NNC(=O)c1ccco1)c1ccccc1` showed a solubility kinetic greater than 43.4 µg/mL. `O=C1CN(C(=O)COC(=O)Cc2ccccc2)c2ccccc2N1` showed a solubility kinetic greater than 48.7 µg/mL. `CC(C)(C)c1ccc(C(=O)N2CCN(Cc3ccccc3)CC2)cc1` gave a solubility kinetic of 28.5 µg/mL (≈ 84.7 µM). `O=CNc1ccc(OC(=O)c2cncc(Br)c2)cc1` gave a solubility kinetic of 15.4 µg/mL (≈ 48 µM). With `O=C(O)COCC(=O)NCc1nc(-c2ccc(C(F)(F)F)cc2)no1` the solubility kinetic was greater than 53.9 µg/mL. `CC(O/N=C(\N)c1ccccc1)C(=O)Nc1cccc(C(F)(F)F)c1` (stereo not given) gave a solubility kinetic greater than 52.7 µg/mL. `CCN(C(=O)COC(=O)c1cccnc1SC)C1CCCCC1` gave a solubility kinetic greater than 50.5 µg/mL. Work on `CN(CC(=O)NC1CC1)S(=O)(=O)c1ccc(F)cc1` yielded a solubility kinetic greater than 42.9 µg/mL. Work on `CCCCNC(=O)/C(=C/c1ccco1)NC(=O)c1ccco1` yielded a solubility kinetic of 37.7 µg/mL (≈ 125 µM). Compound `O=C(Nc1ccccc1F)C(c1ccccc1)c1ccccc1` has a solubility kinetic of less than 0.7 µg/mL. Compound `O=C(CCCOc1ccc(Cl)cc1Cl)NCc1ccncc1` has a solubility kinetic of 43.6 µg/mL (≈ 129 µM). `CCc1ccccc1NC(=O)NCc1ccccn1` showed a solubility kinetic greater than 38.3 µg/mL. For `CC1CCCCN1C(=O)COC(=O)/C=C/c1ccc2ccccc2n1` (stereo not given), the solubility kinetic was 25.1 µg/mL (≈ 74.2 µM). Work on `C[C@H](NS(=O)(=O)c1ccc(Cl)cc1)C(=O)OCC(=O)N1CCOCC1` yielded a solubility kinetic of 55.9 µg/mL (≈ 143 µM). Work on `COc1ccc(NC(=S)N2CCC(Cc3ccccc3)CC2)cc1` yielded a solubility kinetic of 4.7 µg/mL (≈ 13.8 µM). For `Cc1ccc(C(=O)c2cc3c(cc2[N+](=O)[O-])OCCO3)cc1`, the solubility kinetic was 8 µg/mL (≈ 26.7 µM). For `N#Cc1c(-c2ccc3c(c2)OCO3)cc[nH]c1=O`, the solubility kinetic was 2.3 µg/mL (≈ 9.57 µM). For `NC(=O)C1CCN(C(=S)NC2CC3C=CC2C3)CC1` (stereo not given), the solubility kinetic was greater than 41.9 µg/mL. For `CC1CCC(C(C)C)C(OCC(O)CNC(C)C)C1.Cl` (stereo not given), the solubility kinetic was greater than 46.2 µg/mL. Compound `Cc1cc(C)c2c(ccc3cccc[n+]32)c1.[O-][Cl+3]([O-])([O-])[O-]` has a solubility kinetic greater than 46.2 µg/mL. With `Cc1cc(Nc2ccc(Cl)cc2)nc(-c2ccccc2O)n1` the solubility kinetic was 0.2 µg/mL (≈ 0.641 µM). With `N#Cc1c(-c2ccc([N+](=O)[O-])cc2)nc2n(c1=O)CCS2` the solubility kinetic was 14.7 µg/mL (≈ 49 µM). Work on `CCOc1ncccc1C(=O)OCC(=O)NCCCc1ccccc1` yielded a solubility kinetic greater than 51.4 µg/mL. For `CC(=O)C(/C=N/c1ncc(C(F)(F)F)cc1Cl)=C(\C)O`, the solubility kinetic was 1.3 µg/mL (≈ 4.24 µM). Compound `Cc1ccccc1SCC(=O)NCC(c1ccc(F)cc1)N1CCOCC1` (stereo not given) has a solubility kinetic greater than 58.3 µg/mL. Work on `CC1(C2CC2)NC(=O)N(CC(=O)N2CCN(c3cccc(C(F)(F)F)c3)CC2)C1=O` (stereo not given) yielded a solubility kinetic of 21.6 µg/mL (≈ 50.9 µM). `N#Cc1cc(Cl)c(NCC2CCCO2)cc1C#N` (stereo not given) showed a solubility kinetic of 18.2 µg/mL (≈ 69.5 µM). In the case of `Cc1ccc(C)c(Nc2c([N+](=O)[O-])ccc3nonc23)c1`, the solubility kinetic is reported as 0.2 µg/mL (≈ 0.704 µM). In the case of `Cc1ccc(S(=O)(=O)CCC(=O)OC(C)c2nnc(-c3cccs3)o2)cc1` (stereo not given), the solubility kinetic is reported as greater than 61 µg/mL. Work on `CCOc1ccc(N2C(=O)Cc3ccccc3C2=O)cc1` yielded a solubility kinetic of 26.9 µg/mL (≈ 95.6 µM). `COCCNC(=S)NC(=O)c1ccc(C(C)(C)C)cc1` showed a solubility kinetic of 14 µg/mL (≈ 47.6 µM). In the case of `CC(=O)c1sc(-c2ccc(Cl)cc2)cc1N`, the solubility kinetic is reported as 1.8 µg/mL (≈ 7.15 µM). Work on `Cc1ccc(C)c(OCC(=O)NC2CCCCCC2)c1` yielded a solubility kinetic of 3.8 µg/mL (≈ 13.8 µM). With `Cc1cccc(CSc2nc3c(c(-c4cccs4)c2C#N)CN(C)CC3)c1` the solubility kinetic was 5.8 µg/mL (≈ 14.8 µM). For `S=C(Nc1cccnc1)N1CCN(c2ccccc2Cl)CC1`, the solubility kinetic was 44.2 µg/mL (≈ 133 µM). `Cc1ccc(CNC(=O)C2CC=CCC2C(=O)O)cc1` (stereo not given) gave a solubility kinetic greater than 41 µg/mL. In the case of `CCOc1ccccc1C(=O)NCC(=O)O`, the solubility kinetic is reported as greater than 33.5 µg/mL. `NC(=O)C1CCCN(C(=S)NCc2ccc3c(c2)OCO3)C1` (stereo not given) gave a solubility kinetic greater than 48.2 µg/mL. Compound `O=C1C(Cl)=C(NCCN2CCOCC2)C(=O)c2ccccc21` has a solubility kinetic greater than 48.1 µg/mL. With `COc1cccc(OC)c1C(=O)OCC(=O)NCc1ccco1` the solubility kinetic was greater than 47.9 µg/mL. Compound `C#CCOc1ccc(/C=C2/C(=O)ON=C2C)cc1Cl` has a solubility kinetic of 32.9 µg/mL (≈ 119 µM). In the case of `CC(C)(C)c1ccc(NC(=O)NC2CCCc3ccccc32)cc1` (stereo not given), the solubility kinetic is reported as less than 0.3 µg/mL. With `CCN1CCN(c2ccc(NC(=O)c3ccc(Br)o3)cc2)CC1` the solubility kinetic was greater than 56.7 µg/mL. Work on `NC(=O)c1c(NC(=O)c2ccncc2)sc2c1CCCCCC2` yielded a solubility kinetic of 7 µg/mL (≈ 21.2 µM). With `CS(=O)(=O)N1CCC(CO)(Cc2ccccc2C(F)(F)F)CC1` the solubility kinetic was 48.7 µg/mL (≈ 139 µM). With `Cc1cccc(NC(=O)CNC(=O)CSc2ncccn2)c1C` the solubility kinetic was greater than 49.6 µg/mL. Compound `Cc1ccc(-c2csc(NC(=O)CN3CCOCC3)n2)cc1C` has a solubility kinetic of 39.2 µg/mL (≈ 118 µM). In the case of `CN1CCCN(C(=O)c2cccc3ccccc23)CC1`, the solubility kinetic is reported as greater than 40.3 µg/mL. For `COc1ccc(-c2csc3ncnc(Cl)c23)cc1`, the solubility kinetic was 0.6 µg/mL (≈ 2.17 µM). Work on `CN(C)c1cccc(C(=O)OCC(=O)N2CCc3ccccc3C2)c1` yielded a solubility kinetic of 27.9 µg/mL (≈ 82.4 µM). For `COCc1cc(=O)[nH]c(/N=C(\N)Nc2c(F)cccc2F)n1`, the solubility kinetic was 40.6 µg/mL (≈ 131 µM). With `O=C(c1cccc2ccccc12)N1CCCCC1` the solubility kinetic was 34.9 µg/mL (≈ 146 µM). In the case of `OC(CN1CCC(Cc2ccccc2)CC1)c1ccccc1` (stereo not given), the solubility kinetic is reported as greater than 44.3 µg/mL. For `Cc1cc(-c2ccc([N+](=O)[O-])cc2)nc2ccccc12.Cl`, the solubility kinetic was 1 µg/mL. `Cc1nc(-c2ccccc2)ccc1C(=O)O` showed a solubility kinetic greater than 32 µg/mL.
